As to `CC(C)NC(=O)N1CCc2[nH]cnc2C1c1ccncc1` (configuration not stated), the melting point turned out to be 212 °C.

Consider `COC1(C)c2ccc(C#Cc3cc(Cl)ccc3OCC(=O)O)cc2S(=O)(=O)C1(C)C` (configuration not stated), for which the melting point was 80 to 95 °C.

With `N#CC1=C(Nc2ccc(F)c(F)c2)CCC1`, the melting point was in the range of 126 to 128 °C.

In turn, `CC(C)(C#N)c1cc(Cn2cncn2)cc(-c2ccc(OS(N)(=O)=O)c(Cl)c2)c1` had a melting point of 71 to 74 °C. The figure for `N#Cc1c(-c2ccc(Cl)cc2)[nH]c(C(F)(F)F)c1Sc1ccc(Cl)c(Cl)c1` is 94 to 97 °C; for `CC(C)C[C@H](NC(=O)c1ccccc1)C(=O)NC#N` it is 136 to 137 °C. Compound `CCOC(=O)C(CC(=O)OC1CC2CCC1(C)C2(C)C)(NC(=O)OCc1ccccc1)C(N)=O` (configuration not stated) registered a melting point of 105 to 106 °C. The figure for `O=C(O)CCCCNS(=O)(=O)c1ccc(N2CCCCCC2)cc1` is 135 to 140 °C; for `CCOP(=O)(CCN(OCc1ccccc1)S(=O)(=O)c1ccc(C)cc1)OCC` it is 78 to 80 °C. For `O=C1C(Cl)=C(N2CCN(C(=O)Nc3ccccc3Cl)CC2)C(=O)c2ccccc21`, the melting point lay in the range of 160 to 163 °C. The figure for `COc1cc(C(O)C#Cc2c(C)nc(N)nc2N)cc(OC)c1OC` (configuration not stated) is 174 to 176 °C. The result for `CCn1c2ccc(C)cc2c(=O)c2c1cnn2C` reads greater than 300 °C; that for `CN(C(=O)c1ccc(Cl)c(Cl)c1)c1ccccc1CCC(=O)O`, 149 to 150 °C. The figure for `CO/N=C(\C)[C@H]1CC[C@H]2[C@@H]3CC=C4C[C@@H](O)CC[C@]4(C)[C@H]3CC[C@]12C` is 167 to 168 °C. Take `CC(=O)N1CCN(c2c([N+](=O)[O-])cc([N+](=O)[O-])cc2C(F)(F)F)CC1`: the melting point was 126 °C. `O=S1(=O)c2ccccc2C(CCCl)(CCCl)c2ccccc21` had a melting point of 186 to 190 °C. The result for `COc1cc(COC(=O)NC2Cc3ccccc3C2)ccc1OC(C)=O` reads 114 to 116 °C; that for `CCC(=O)N=c1sc2cccc(C)c2n1N`, 175 to 176 °C. `O=C(O)Cc1c(-c2ccccc2)c(=O)[nH]c2cc(Cl)ccc12` returned a melting point of 175 °C. The result for `CCc1noc(-c2cn(-c3nccnn3)cn2)n1` reads 181 to 182 °C; that for `C[C@@H](Nc1nc(Nc2cccc(NS(C)(=O)=O)c2)nc2[nH]ccc12)C(C)(C)C`, 125 to 128 °C; that for `CCCc1nc2cnc3cc(C)ccc3c2o1`, 65 to 68 °C.

With `O=S1CCOCC1c1cccnc1` (configuration not stated), the melting point was in the range of 74 to 76 °C. The result for `O=C(O)C(=O)c1ccc(OCCOc2ccc(F)cc2)cc1` reads 97 to 98 °C.

Regarding `C#CCn1c(=O)c2c(nc(C#Cc3cccc(O)c3)n2C)n(C)c1=O`, the melting point stood at 271 °C. The result for `O=C(O)c1ccccc1Oc1ccc(F)cc1` reads 146 to 147 °C; that for `O=S1(=O)CCCS(=O)(=O)N1F`, 171 to 172 °C; that for `CC(C)NC(=O)c1cc(N(C)C)cc(Oc2cccc(C(F)(F)F)c2)n1`, 108 to 110 °C. The result for `CSC1=NCCc2nc(C)nn21` reads 75.5 to 76.5 °C.

For the compound `O=C(NCCc1ccc(Cl)cc1Cl)Nc1cccc2[nH]ccc12`, the melting point amounted to 170 °C. Take `CCCCCCCCCCCCCCCCCCOC(=O)N(N)C(=O)c1cc(O)ccc1O`: the melting point turned out to be 163 °C.

On to `COC(=O)C(N)Cc1ccc(OCCN(C)c2nc3ccccc3o2)cc1` (configuration not stated), for which the melting point was 95 to 96 °C. Regarding `CCN(C(C)=O)c1ccc(O)cc1`, the melting point was 183 to 185 °C. The figure for `COc1cc(C(=O)NS(=O)(=O)c2ccccc2Cl)ccc1Cc1cn(C)c2ccc(CCNC(=O)N3CCOCC3)cc12` is 175 to 181 °C; for `COc1ccc(S(=O)(=O)NC(C)(C)C(=O)NO)cc1` it is 122 to 125 °C; for `COc1cc(CSC(=S)N(C)C)nc(N)n1` it is 118 to 120 °C. The result for `CN1C(=O)N(c2cc(Cl)nc(Cl)c2)C(=O)[C@]12CNC[C@H]2c1ccc(C#N)cc1` (relative stereo) reads 202 °C; that for `CCN(CC)c1ccc(Nc2nc(N)c(C(=O)c3ccc([N+](=O)[O-])cc3)s2)cc1`, 220 to 221 °C. Compound `CNC(=O)Nc1ccc(CN2OCC(C)(C)C2=O)c(Cl)c1` gave a melting point of 227 to 229 °C. The figure for `COc1ccc(S(=O)(=O)N(CC(C)C)CC(O)C(Cc2ccccc2)NC(=O)C(C)CS(C)(=O)=O)cc1OC` (configuration not stated) is 130 to 133 °C; for `CC(=O)Nc1ccc(-c2ccccc2C#N)cc1C` it is 135 to 143 °C; for `CC(C)(C)C1=NN(c2ccc(C(=O)O)cc2)C(c2ccccc2F)C1` (configuration not stated) it is 225 °C.

With `O=C(NCC1Cc2cc(Cl)cc(-c3ccsc3)c2O1)OCc1ccccc1` (configuration not stated), the melting point is 90 to 92 °C. The figure for `CC(=O)C1CCC2C3CCC4CC(OC(=O)C(Cl)(Cl)Cl)CCC4(C)C3C(=O)CC12C` (configuration not stated) is 126 to 127 °C; for `C#CCOc1ccc(C2=NC3=CCNC(=O)C3=N2)c(OC)c1` it is 178 to 180 °C.

Take `CCOc1cc(OCc2ccc(OCc3nc(-c4ccccc4)oc3C)cc2)ccc1CCC(=O)O`: the melting point lay in the range of 135 to 136 °C. In turn, `C[C@]1(COC(=O)N2CCCc3cc(Cl)ccc32)Cn2cc([N+](=O)[O-])nc2O1` displayed a melting point of 172 to 174 °C. The compound `CNS(=O)(=O)Oc1ccc2c(c1)C(C)(C)C(N1CCOCC1)O2` (configuration not stated) returned a melting point of 129 to 131 °C.

Regarding `CCc1ccc(Nc2nc3cc(NC(=O)c4ccc(CC)cc4)ccc3o2)cc1`, the melting point was greater than 250 °C.

In the case of `CCC1(CC)COP(=O)(Cc2ccc([N+](=O)[O-])cc2)OC1`, the melting point was in the range of 159 to 160 °C. `Cc1cc(NCc2ccc(-c3ccccc3C#N)cc2)n2nccc2n1`: the melting point fell in the range of 221 to 223 °C. The result for `Cc1nn(C)c2nc(N)[nH]c(=O)c2c1=O` reads greater than 300 °C; that for `CCCc1nc2c(N)nc3ccccc3c2n1CCCCCC(=O)N1CCOCC1`, 149 to 151 °C. `Cc1cccc(N=C2NCCN2C(=O)Nc2ccc(F)cc2)c1`: the melting point is 178 °C. The compound `Cc1cc(C)c2c(c1)Cc1ccccc1S2(=O)=O` returned a melting point of 103 to 105 °C. With `CCCCCCCc1ccc(C(=O)CCCCC(=O)O)cc1N`, the melting point lay in the range of 100 to 102 °C. In turn, `Cc1c(C(N)=O)ncn1-c1cccc(Cl)c1` had a melting point of 179 to 181 °C. Turning to `Cc1cc2c(=O)c(C(=O)O)cn(-c3cc(N)c(F)cc3F)c2c([N+](=O)[O-])c1F`, the melting point was 236 to 242 °C.

In turn, `Clc1ccc(-n2nc3c(c2Cl)CCCCC3)cc1` displayed a melting point of 59 to 61 °C. The compound `Cc1nc2c3c(c(CO)cc2n1C)CCC(c1ccccc1)O3` (configuration not stated) gave a melting point of 279 to 281 °C. The result for `COc1ccc(C(=O)N2CCC(N3C(=O)Cc4ccccc43)CC2)c(OC)c1` reads 88 to 93 °C; that for `O=[N+]([O-])c1ccc(OC[C@@H]2CCCN2c2ccc3ccccc3n2)cc1`, 118 to 120 °C; that for `NC(=CC(=O)[C@H](Cc1ccccc1)N(Cc1ccccc1)Cc1ccccc1)Cc1ccccc1`, 101 to 102 °C. In turn, `COc1ccc(-c2nc(C)c(Cl)[nH]2)cc1` returned a melting point of 182 to 186 °C. The result for `CC(C)NC(C)Cc1ccc(O)cn1` (configuration not stated) reads 135 to 138 °C; that for `O=C(c1ccn2c1CSC2c1cccnc1)c1cn(S(=O)(=O)c2ccccc2)c2cc(-c3ccc(F)cc3)ccc12` (configuration not stated), 115 to 116 °C. The result for `COc1ccc(C(=O)n2c(C)c(Cc3cc(=O)n(C4CCCCC4)[nH]3)c3cc(OC)ccc32)cc1` reads 88 to 90 °C; that for `O=C1c2c(Cl)cccc2-n2cnc(/C=C\Cl)c2[C@@H]2CCN12`, 189 to 191 °C; that for `Clc1cccnc1-c1cc(OCCc2ccccn2)c2[nH]nc(Nc3cnccn3)c2c1`, 117 to 119 °C. The figure for `Cn1c(=O)c2nc(-c3ccc(/C=C/C(=O)O)cc3)[nH]c2n(Cc2ccccc2)c1=O` is greater than 300 °C; for `CCC1C(CC)N1S(=O)(=O)c1ccc(C)cc1` (configuration not stated) it is 69 to 70 °C. Regarding `Cc1nn(-c2c(Cl)cc(C(F)(F)F)cc2Cl)c(C)c1C=NC(C#N)=C(N)C#N`, the melting point lay in the range of 237 to 240 °C. Turning to `COC(=O)C(Cc1ccc(OCCc2nc(-c3ccccc3)oc2C)cc1)C(N)=O` (configuration not stated), the melting point amounted to 155 °C. The result for `COc1cc(Nc2c(C#N)cnc3cc(-c4cccc([N+](=O)[O-])c4)ccc23)c(Cl)cc1Cl` reads 287 to 288 °C; that for `O=C1Cc2cc(OCc3ccc4ccccc4n3)ccc2N1c1c(Cl)cccc1Cl`, 147 to 148 °C; that for `COC(=O)C1CCc2cc(C(=O)c3ccccc3)c(OC)cc21` (configuration not stated), 126 to 128 °C. The result for `CCNC(=S)Nc1cccc(C(=O)OCC)c1NCc1ccc(-c2ccccc2C#N)cc1` reads 108 to 110 °C; that for `COc1cn(-c2cccc(C3=CCOCC3)c2F)nc(-c2ccnn2-c2ccccc2)c1=O`, 138 to 141 °C. The result for `CON=C(C#CC(=O)c1ccc(Cl)cc1)C(=O)OC` reads 172 to 173 °C. The compound `CCCCCCN(Cc1ccc2ccccc2n1)C(Nc1ccc(OC)cc1OC)=C1C(=O)OC(C)(C)OC1=O` displayed a melting point of 106 to 109 °C. The figure for `Cn1nc(C(F)(F)F)cc1N` is 100 to 101 °C; for `CC1=Nc2ccccc2C1(C)CCCCCC(=O)O` (configuration not stated) it is 115 to 118 °C.

The compound `Cn1cc(C2=C(c3cccc(NCCO)c3)C(=O)NC2=O)c2ccccc21` yielded a melting point of 170 to 171 °C. The figure for `Cc1cccc(C)c1CS(=O)(=O)NCCc1c(CCCc2ccc(C(=O)O)cc2)c2cc(Cl)ccc2n1C(c1ccccc1)c1ccccc1` is 193 °C; for `CCN1N=C(c2ccc(F)cc2)c2cc(Cl)c(Cl)cc2CS1(=O)=O` it is 218 to 221 °C.

Consider `CCCCCN(CCc1ccccc1)C(=O)NCC(C)Cc1ccncc1` (configuration not stated), for which the melting point lay within 49 to 50 °C.

In the case of `C=C1SC(=O)N(c2ccc3cc(-c4ccc(O)c(C56CC7CC(CC(C7)C5)C6)c4)ccc3c2)C1=O`, the melting point was in the range of 299 to 302 °C.
